How the values were obtained:
Type in all cases: in vivo
[1] = tested on: Euschistus heros (Neotropical Brown Stink Bug); assay: Example B3: Euschistus heros, soybean leaves, N2 nymphs; conditions: for percent effect (mortality or growth inhibition) at 200 ppm: Euschistus heros, 120 h, application rate of 200 ppm, N2 nymphs, 5 days after infestation, read-out: effect in at least one of the two categories (mortality or growth inhibition); for mortality at 50 ppm: Concentration 50 ppm, Euschistus heros (Example B3), read-out: Mortality (%)
Experimental: Soybean leaves on agar in 24-well microtiter plates were sprayed with aqueous test solutions prepared from 10,000 ppm DMSO stock solutions. After drying the leaves were infested with N2 nymphs. The samples were assessed for mortality and growth inhibition in comparison to untreated samples 5 days after infestation.

[2] = tested on: Myzus persicae (Green peach aphid); assay: Example B5: Myzus persicae feeding/contact activity, sunflower leaf discs; conditions: foliar; for mortality at 200 ppm: Myzus persicae, 144 h, application rate of 200 ppm, mixed ages, 6 days after infestation, read-out: mortality; for mortality at 12.5 ppm: Concentration 12.5 ppm, Myzus persicae (feeding/contact, Example B5), read-out: Mortality (%)
Experimental: Sunflower leaf discs were placed onto agar in a 24-well microtiter plate and sprayed with aqueous test solutions prepared from 10,000 ppm DMSO stock solutions. After drying, the leaf discs were infested with an aphid population of mixed ages. The samples were assessed for mortality 6 days after infestation.

[3] = tested on: Myzus persicae (Green peach aphid); assay: Example B6: Myzus persicae systemic activity, pea seedlings; conditions: for mortality at 24 ppm: Myzus persicae, 144 h, test rate of 24 ppm, mixed ages, 6 days after placing seedlings into test solutions, read-out: mortality; for mortality at 1.5 ppm: Concentration 1.5 ppm, Myzus persicae (systemic, Example B6), read-out: Mortality (%)
Experimental: Roots of pea seedlings infested with an aphid population of mixed ages were placed directly into aqueous test solutions prepared from 10,000 DMSO stock solutions. The samples were assessed for mortality 6 days after placing seedlings into test solutions.

[4] = tested on: Plutella xylostella (Diamond Back Moth); assay: Example B7: Plutella xylostella, artificial diet, L2 larvae; conditions: 120 h, application rate of 200 ppm, L2 larvae, 5 days after infestation, read-out: effect in at least one of the two categories (mortality or growth inhibition)
Experimental: (§1) 24-well microtiter plates with artificial diet were treated with aqueous test solutions prepared from 10,000 ppm DMSO stock solutions by pipetting. After drying, the plates were infested with L2 larvae (10 to 15 per well). The samples were assessed for mortality and growth inhibition in comparison to untreated samples 5 days after infestation.

[5] = tested on: Spodoptera littoralis (Egyptian Cotton Leaf Worm); assay: Example B9: Spodoptera littoralis, cotton leaf discs (mortality, anti-feeding, growth inhibition); conditions: foliar, 72 h, application rate of 200 ppm, L1 larvae, 3 days after infestation, read-out: control (mortality, anti-feeding effect or growth inhibition)
Experimental: Cotton leaf discs were placed onto agar in 24-well microtiter plates and sprayed with aqueous test solutions prepared from 10,000 ppm DMSO stock solutions. After drying the leaf discs were infested with five L1 larvae. The samples were assessed for mortality, anti-feeding effect, and growth inhibition in comparison to untreated samples 3 days after infestation. Control of Spodoptera littoralis by a test sample is given when at least one of the categories mortality, anti-feedant effect, and growth inhibition is higher than the untreated sample.

[6] = tested on: Tetranychus urticae (Two-Spotted Spider Mite); assay: Example B10: Tetranychus urticae feeding/contact activity, bean leaf discs; conditions: foliar, 192 h, application rate of 200 ppm, mixed population (mobile stages), 8 days after infestation
Experimental: Bean leaf discs on agar in 24-well microtiter plates were sprayed with aqueous test solutions prepared from 10,000 ppm DMSO stock solutions. After drying the leaf discs were infested with a mite population of mixed ages. The samples were assessed for mortality on mixed population (mobile stages) 8 days after infestation.

[7] = tested on: Melodoigyne incognita; assay: Example B14: Melodoigyne incognita juvenile mobility, in vitro profiling in 96 well plate; conditions: 200 ppm; after 24 h; second stage juveniles; read-out: control (juvenile mobility)
Experimental: Test solutions are prepared from 10,000 ppm DMSO stock solutions with a TECAN robot to achieve 20 μL of 1000, 200, 100, 50, 25 and 12.5 ppm. For each concentration three replicates are produced. Per well, 80 μL nematode solution is added containing 100 to 150 freshly harvested second stage juveniles of Melodoigyne incognita. The plates are covered and stored at room temperature in the dark and incubated for 24 h. Mobility of the exposed juveniles in a treated well is measured using an imaging tool and compared to an average of 12 untreated replicates.

[8] = tested on: Diabrotica Balteata (Corn Root Worm); assay: Example B2: Diabrotica balteata, maize sprouts, L2 larvae; conditions: for percent effect (mortality or growth inhibition) at 200 ppm: Diabrotica balteata, 96 h, application rate of 200 ppm, L2 larvae, 4 days after infestation, read-out: effect in at least one of the two categories (mortality or growth inhibition)
Experimental: as §1, with “Maize sprouts placed onto an agar layer in 24-well” for “24-well”, “plates” for “plates with artificial diet”, “spraying.” for “pipetting.”, “(6” for “(10”, “10” for “15”, “4” for “5”

[9] = tested on: Frankliniella occidentalis (Western Flower Thrips); assay: Example B4: Frankliniella occidentalis feeding/contact activity, sunflower leaf discs; conditions: foliar, 168 h, application rate of 200 ppm, mixed ages, 7 days after infestation
Experimental: Sunflower leaf discs were placed on agar in 24-well microtiter plates and sprayed with aqueous test solutions prepared from 10,000 DMSO stock solutions. After drying the leaf discs were infested with a Frankliniella population of mixed ages. The samples were assessed for mortality 7 days after infestation.

[10] = tested on: Bemisia tabaci (Cotton White Fly); assay: Example B1: Bemisia tabaci feeding/contact activity, cotton leaf discs; conditions: foliar, 144 h, application rate of 200 ppm, adult white flies, 6 days after incubation
Experimental: Cotton leaf discs were placed on agar in 24-well microtiter plates and sprayed with aqueous test solutions prepared from 10,000 ppm DMSO stock solutions. After drying the leaf discs were infested with adult white flies. The samples were checked for mortality 6 days after incubation.

Structure (SMILES)	percent effect (mortality or growth inhibition) at 200 ppm [1] [%]	mortality at 200 ppm [2] [%]	mortality at 24 ppm [3] [%]	percent effect (mortality or growth inhibition) at 200 ppm [4] [%]	percent control (mortality, anti-feedant effect or growth inhibition) at 200 ppm [5] [%]	mortality at 200 ppm [6] [%]	pest or weed control at 200 ppm [7] [%]	percent effect (mortality or growth inhibition) at 200 ppm [8] [%]	mortality at 50 ppm [1] [%]	mortality at 200 ppm [9] [%]	mortality at 12.5 ppm [2] [%]	mortality at 1.5 ppm [3] [%]	mortality at 200 ppm [10] [%]	Mortality (%) ([8]; Concentration 200 ppm, Diabrotica balteata (Example B2), listed as drawing 154)
CCS(=O)(=O)c1cc(N(C(C)=O)C2(C#N)CC2)cnc1-c1nc2cc(C(F)(F)F)ncc2n1C [P42, N-(1-cyanocyclopropyl)-N-[5-ethylsulfonyl-6-[3-methyl-6-(trifluoromethyl)imidazo[4,5-c]pyridin-2-yl]-3-pyridyl]acetamide]	≥ 80	≥ 80	≥ 80	≥ 80	≥ 80	≥ 80	≥ 80	–	–	–	–	–	–	–
CCS(=O)(=O)c1cc(N(C)C(=O)C2(C#N)CC2)cnc1-c1nc2cc(C(F)(F)F)ncc2n1C [P38, 1-cyano-N-[5-ethylsulfonyl-6-[3-methyl-6-(trifluoromethyl)imidazo[4,5-c]pyridin-2-yl]-3-pyridyl]-N-methyl-cyclopropanecarboxamide]	≥ 80	≥ 80	≥ 80	≥ 80	–	≥ 80	≥ 80	≥ 80	–	–	–	–	–	–
CCN(C(C)=O)c1cnc(-c2nc3cc(C(F)(F)F)ncc3n2C)c(S(=O)(=O)CC)c1 [P21, N-ethyl-N-[5-ethylsulfonyl-6-[3-methyl-6-(trifluoromethyl)imidazo[4,5-c]pyridin-2-yl]-3-pyridyl]acetamide]	≥ 80	≥ 80	≥ 80	–	–	≥ 80	≥ 80	≥ 80	100	≥ 80	100	100	–	–
CCS(=O)(=O)c1cc(N(C)C(=O)C(C)(C)C#N)cnc1-c1nc2cc(C(F)(F)F)ncc2n1C [P43, 2-cyano-N-[5-ethylsulfonyl-6-[3-methyl-6-(trifluoromethyl)imidazo[4,5-c]pyridin-2-yl]-3-pyridyl]-N,2-dimethyl-propanamide]	≥ 80	≥ 80	≥ 80	≥ 80	≥ 80	–	≥ 80	≥ 80	–	≥ 80	–	–	–	–
CCC(=O)N(C)c1cnc(-c2nc3cc(C(F)(F)F)ncc3n2C)c(S(=O)(=O)CC)c1 [P23, N-[5-ethylsulfonyl-6-[3-methyl-6-(trifluoromethyl)imidazo[4,5-c]pyridin-2-yl]-3-pyridyl]-N-methyl-propanamide]	≥ 80	≥ 80	≥ 80	≥ 80	≥ 80	≥ 80	≥ 80	≥ 80	100	–	90	100	–	–
CCS(=O)(=O)c1cc(N(C)C(=O)C(F)F)cnc1-c1nc2cc(C(F)(F)F)ncc2n1C [P13, N-[5-ethylsulfonyl-6-[3-methyl-6-(trifluoromethyl)imidazo[4,5-c]pyridin-2-yl]-3-pyridyl]-2,2-difluoro-N-methyl-acetamide]	≥ 80	≥ 80	≥ 80	≥ 80	≥ 80	≥ 80	≥ 80	≥ 80	–	–	–	–	–	–
CCS(=O)(=O)c1cc(N(C)C(=O)CSC)cnc1-c1nc2cc(C(F)(F)F)ncc2n1C [P14, N-[5-ethylsulfonyl-6-[3-methyl-6-(trifluoromethyl)imidazo[4,5-c]pyridin-2-yl]-3-pyridyl]-N-methyl-2-methylsulfanyl-acetamide]	≥ 80	≥ 80	≥ 80	–	≥ 80	–	≥ 80	≥ 80	–	–	–	–	≥ 80	–
CCS(=O)(=O)c1cc(N2CCSC2=O)cnc1-c1nc2cc(C(F)(F)F)ncc2n1C [P45, 3-[5-ethylsulfonyl-6-[3-methyl-6-(trifluoromethyl)imidazo[4,5-c]pyridin-2-yl]-3-pyridyl]thiazolidin-2-one]	≥ 80	≥ 80	≥ 80	≥ 80	≥ 80	≥ 80	≥ 80	≥ 80	100	–	80	50	≥ 80	–
CCS(=O)(=O)c1cc(N(C)C(=O)C2CC2)cnc1-c1nc2cc(C(F)(F)F)ncc2n1C [P9, N-[5-ethylsulfonyl-6-[3-methyl-6-(trifluoromethyl)imidazo[4,5-c]pyridin-2-yl]-3-pyridyl]-N-methyl-cyclopropanecarboxamide]	≥ 80	≥ 80	≥ 80	≥ 80	≥ 80	–	≥ 80	≥ 80	–	≥ 80	–	–	–	–
CCS(=O)(=O)c1cc(NC(C)=O)cnc1-c1nc2cc(C(F)(F)F)ncc2n1C [P4, N-[5-ethylsulfonyl-6-[3-methyl-6-(trifluoromethyl)imidazo[4,5-c]pyridin-2-yl]-3-pyridyl]acetamide]	≥ 80	≥ 80	≥ 80	–	–	–	–	≥ 80	–	≥ 80	–	–	–	100
CCS(=O)(=O)c1cc(N(C)C(=O)C(C)C)cnc1-c1nc2cc(C(F)(F)F)ncc2n1C [P27, N-[5-ethylsulfonyl-6-[3-methyl-6-(trifluoromethyl)imidazo[4,5-c]pyridin-2-yl]-3-pyridyl]-N,2-dimethyl-propanamide]	≥ 80	≥ 80	≥ 80	≥ 80	–	–	≥ 80	–	–	–	–	–	≥ 80	–

From patent US20210047291A1, “PESTICIDALLY ACTIVE HETEROCYCLIC DERIVATIVES WITH SULFUR CONTAINING SUBSTITUENTS” (SYNGENTA PARTICIPATIONS AG, priority 2018, published 2021)
